Test results reported in ChEMBL document CHEMBL1201862, “PubChem BioAssay data set” (2004).
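Dose response: 5 concentrations. Exposure: 48 h. Format: 96-well plates. Endpoint: linear interpolation; highest concentration if not reached. GI50: concentration for 50% inhibition of growth.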 Active and inactive are the calls of the source. Rule as the data show it: active = GI50 up to about 1.1 µM and inactive = higher.

Key:
Assay in all cases: inhibition of tumour cell growth, NCI panel, 48 h
[1] = system: 786-0
[2] = system: A549
[3] = system: ACHN
[4] = system: BT-549
[5] = system: CAKI-1
[6] = system: CCRF-CEM
[7] = system: COLO 205
[8] = system: DU-145
[9] = system: EKVX
[10] = system: HCC 2998
[11] = system: HCT-116
[12] = system: HCT-15
[13] = system: HL-60
[14] = system: HOP-62
[15] = system: HOP-92
[16] = system: HT-29
[17] = system: Hs-578T
[18] = system: IGROV-1
[19] = system: K562
[20] = system: KM12
[21] = system: LOX IMVI
[22] = system: M14
[23] = system: MCF7
[24] = system: MDA-MB-231
[25] = system: MDA-MB-435
[26] = system: MDA-N
[27] = system: MOLT-4
[28] = system: Malme-3M
[29] = system: NCI-H226
[30] = system: NCI-H23
[31] = system: NCI-H460
[32] = system: NCI-H522
[33] = system: NCI/ADR-RES
[34] = system: OVCAR-3
[35] = system: OVCAR-4
[36] = system: OVCAR-5
[37] = system: OVCAR-8
[38] = system: PC-3
[39] = system: RPMI-8226
[40] = system: RXF 393
[41] = system: SF-268
[42] = system: SF-295
[43] = system: SF-539
[44] = system: SK-MEL-28
[45] = system: SK-MEL-2
[46] = system: SK-MEL-5
[47] = system: SK-OV-3
[48] = system: SN12C
[49] = system: SNB-19
[50] = system: SNB-75
[51] = system: SR
[52] = system: SW-620
[53] = system: T47D
[54] = system: TK-10
[55] = system: U-251
[56] = system: UACC-257
[57] = system: UACC-62
[58] = system: UO-31
[59] = system: A498

`C=C(CN1CC2C[C@](C(=O)OC)(c3cc4ccccc4[nH]3)C1C(OC)C2OC)S(=O)(=O)c1ccccc1` (stereo partly drawn) was tested, and the GI50 [1] was 2.4 µM (inactive), the GI50 [2] was 3.13 µM (inactive) and the GI50 [3] was 3.01 µM (inactive). The GI50 [4] was 3.85 µM (inactive), the GI50 [5] was 3.71 µM (inactive) and the GI50 [6] was 2.24 µM (inactive). For the same compound, the GI50 [7] was 2.54 µM (inactive), the GI50 [8] was 4 µM (inactive) and the GI50 [9] was 3.3 µM (inactive). For the same compound, the GI50 [10] was 1.87 µM (inactive), the GI50 [11] was 2.54 µM (inactive) and the GI50 [12] was 3.08 µM. The GI50 [13] was 1.92 µM (inactive), the GI50 [14] was 4.78 µM (inactive) and the GI50 [15] was 0.729 µM (active). For the same compound, the GI50 [16] was 2.72 µM (inactive), the GI50 [17] was 2.5 µM (inactive) and the GI50 [18] was 2.6 µM (inactive). For the same compound, the GI50 [19] was 2.75 µM (inactive), the GI50 [20] was 2.88 µM (inactive) and the GI50 [21] was 1.85 µM (inactive). For the same compound, the GI50 [22] was 2.91 µM (inactive), the GI50 [23] was 3.81 µM (inactive) and the GI50 [24] was 3.35 µM (inactive). For the same compound, the GI50 [25] was 2.29 µM (inactive), the GI50 [26] was 2.69 µM (inactive) and the GI50 [27] was 0.53 µM (active). The GI50 [28] was 0.43 µM (active), the GI50 [29] was 5.07 µM (inactive) and the GI50 [30] was 2.91 µM (inactive). The GI50 [31] was 3.07 µM (inactive), the GI50 [32] was 1.7 µM (inactive) and the GI50 [33] was 4.8 µM (inactive). For the same compound, the GI50 [34] was 3.35 µM (inactive), the GI50 [35] was 3.04 µM (inactive) and the GI50 [36] was 3.71 µM (inactive). For the same compound, the GI50 [37] was 3.14 µM (inactive), the GI50 [38] was 3.19 µM (inactive) and the GI50 [39] was 0.245 µM (active). For the same compound, the GI50 [40] was 3.19 µM (inactive), the GI50 [41] was 4.43 µM (inactive) and the GI50 [42] was 4.65 µM (inactive). For the same compound, the GI50 [43] was 4.9 µM (inactive), the GI50 [44] was 7.53 µM (inactive) and the GI50 [45] was 4.17 µM (inactive). For the same compound, the GI50 [46] was 4.44 µM (inactive), the GI50 [47] was 3.49 µM (inactive) and the GI50 [48] was 3.27 µM (inactive). For the same compound, the GI50 [49] was 10.8 µM (inactive), the GI50 [50] was 2.74 µM (inactive) and the GI50 [51] was 2.7 µM (inactive). The GI50 [52] was 3.01 µM (inactive), the GI50 [53] was 4.6 µM (inactive) and the GI50 [54] was 4.85 µM (inactive). For the same compound, the GI50 [55] was 2.88 µM (inactive), the GI50 [56] was 2.65 µM (inactive) and the GI50 [57] was 4.11 µM (inactive). The GI50 [58] was 1.49 µM (inactive).
In the case of `CC(=O)NC1C(OCc2ccccc2)OC(CO)C(O)C1OC(C)C(=O)NC(C(=O)NC(CCC(=O)NCCCC(=O)Nc1ccc2c(c1)CN1C(=O)c3ccccc3C1=N2)C(N)=O)C(C)C` (stereo not drawn), the GI50 [1] is reported as > 100 µM (inactive), the GI50 [59] is reported as > 100 µM (inactive) and the GI50 [2] is reported as > 100 µM (inactive). The GI50 [3] was > 100 µM (inactive), the GI50 [4] was > 100 µM (inactive) and the GI50 [5] was > 100 µM (inactive). The GI50 [6] was > 100 µM (inactive), the GI50 [7] was > 100 µM (inactive) and the GI50 [8] was > 100 µM (inactive). For the same compound, the GI50 [9] was > 100 µM (inactive), the GI50 [10] was > 100 µM (inactive) and the GI50 [11] was > 100 µM (inactive). The GI50 [12] was > 100 µM, the GI50 [13] was > 100 µM (inactive) and the GI50 [14] was > 100 µM (inactive). The GI50 [15] was > 100 µM (inactive), the GI50 [16] was > 100 µM (inactive) and the GI50 [17] was > 100 µM (inactive). For the same compound, the GI50 [18] was > 100 µM (inactive), the GI50 [19] was > 100 µM (inactive) and the GI50 [20] was > 100 µM (inactive). The GI50 [21] was > 100 µM (inactive), the GI50 [22] was > 100 µM (inactive) and the GI50 [23] was > 100 µM (inactive). The GI50 [24] was > 100 µM (inactive), the GI50 [25] was > 100 µM (inactive) and the GI50 [26] was > 100 µM (inactive). The GI50 [27] was > 100 µM (inactive), the GI50 [28] was > 100 µM (inactive) and the GI50 [30] was > 100 µM (inactive). For the same compound, the GI50 [31] was > 100 µM (inactive), the GI50 [33] was > 100 µM (inactive) and the GI50 [34] was > 100 µM (inactive). For the same compound, the GI50 [35] was > 100 µM (inactive), the GI50 [36] was > 100 µM (inactive) and the GI50 [38] was > 100 µM (inactive). For the same compound, the GI50 [39] was > 100 µM (inactive), the GI50 [40] was > 100 µM (inactive) and the GI50 [41] was > 100 µM (inactive). For the same compound, the GI50 [42] was > 100 µM (inactive), the GI50 [43] was > 100 µM (inactive) and the GI50 [44] was > 100 µM (inactive). The GI50 [45] was > 100 µM (inactive), the GI50 [46] was > 100 µM (inactive) and the GI50 [47] was > 100 µM (inactive). The GI50 [48] was > 100 µM (inactive), the GI50 [49] was > 100 µM (inactive) and the GI50 [50] was > 100 µM (inactive). The GI50 [51] was > 100 µM (inactive), the GI50 [52] was > 100 µM (inactive) and the GI50 [53] was > 100 µM (inactive). The GI50 [54] was > 100 µM (inactive), the GI50 [55] was > 100 µM (inactive) and the GI50 [56] was > 100 µM (inactive). For the same compound, the GI50 [57] was > 100 µM (inactive) and the GI50 [58] was > 100 µM (inactive).
With `CCn1c(=O)c2c3ccc(O)cc3oc2c2ccc(O)cc21` the GI50 [1] was 63.4 µM (inactive), the GI50 [59] was 25.4 µM (inactive) and the GI50 [2] was 41.1 µM (inactive). The GI50 [3] was 24.8 µM (inactive), the GI50 [4] was 26.1 µM (inactive) and the GI50 [5] was 39.4 µM (inactive). For the same compound, the GI50 [6] was 28.2 µM (inactive), the GI50 [7] was 44.7 µM (inactive) and the GI50 [8] was 47.8 µM (inactive). For the same compound, the GI50 [9] was 3.55 µM (inactive), the GI50 [10] was 47 µM (inactive) and the GI50 [11] was 27.2 µM (inactive). For the same compound, the GI50 [12] was 39.4 µM, the GI50 [14] was 34.4 µM (inactive) and the GI50 [15] was 57.9 µM (inactive). The GI50 [16] was 48.1 µM (inactive), the GI50 [17] was 14.6 µM (inactive) and the GI50 [18] was 40.4 µM (inactive). For the same compound, the GI50 [19] was 40.6 µM (inactive), the GI50 [20] was 49.1 µM (inactive) and the GI50 [22] was 43.2 µM (inactive). For the same compound, the GI50 [23] was 39.2 µM (inactive), the GI50 [24] was 30.2 µM (inactive) and the GI50 [25] was 33.7 µM (inactive). The GI50 [26] was 37.5 µM (inactive), the GI50 [27] was 25.5 µM (inactive) and the GI50 [28] was 41.7 µM (inactive). The GI50 [29] was 42.7 µM (inactive), the GI50 [30] was 37.4 µM (inactive) and the GI50 [31] was 34.6 µM (inactive). For the same compound, the GI50 [32] was 40.1 µM (inactive), the GI50 [33] was 53.3 µM (inactive) and the GI50 [34] was 42.7 µM (inactive). For the same compound, the GI50 [35] was 62.4 µM (inactive), the GI50 [37] was 50.6 µM (inactive) and the GI50 [38] was 42.6 µM (inactive). The GI50 [40] was 53.7 µM (inactive), the GI50 [41] was 36.9 µM (inactive) and the GI50 [42] was 52.4 µM (inactive). For the same compound, the GI50 [43] was 34.9 µM (inactive), the GI50 [44] was 49.1 µM (inactive) and the GI50 [46] was 22.5 µM (inactive). For the same compound, the GI50 [47] was 38.5 µM (inactive), the GI50 [48] was 41.5 µM (inactive) and the GI50 [49] was 43.8 µM (inactive). The GI50 [50] was 29.9 µM (inactive), the GI50 [51] was 27.6 µM (inactive) and the GI50 [52] was 41 µM (inactive). The GI50 [53] was 18.1 µM (inactive), the GI50 [54] was 44 µM (inactive) and the GI50 [55] was 32.2 µM (inactive). For the same compound, the GI50 [56] was > 100 µM (inactive), the GI50 [57] was 31.1 µM (inactive) and the GI50 [58] was 26.7 µM (inactive).
